Experimental data taken from PubChem BioAssay AID1919006 (Molecular Pharmacology Branch, DTP, NCI, 2023).
Several values for one entry are separate records, joined by “and”; a condition that tells them apart may be missing. Equal entries are not always repeated.

Tested on: 885512-296-R-J2-PDC complex spheroid growth, % test/control
Test: Anticancer human tumor 885512-296-R-J2-PDC patient-derived breast carcinoma cell line growth inhibition [AhR]
Settings: for viability, T/C: stronger effect = lower value
Description: Multicellular complex tumor spheroid response to aryl hydrocarbon receptor antagonists in combination with a variety of drugs and investigational agents in selected tumor cell lines
The current study was undertaken to assess response to aryl hydrocarbon receptor antagonists in combination with standard-of-care drugs and investigational agents in solid tumor complex spheroid models. Complex spheroids include a stromal component modeled by human endothelial cells (HUVEC) and fibroblasts modeled by human mesenchymal stem cells (MSCs). The concentration ranges selected for each drug and investigational agent were based upon clinically achievable concentrations if the clinical Cmax of the agent was known.
Compounds. The drugs and investigational agents: BAY 2416964 (NSC825713), GNF351 (NSC835774), CH-223191 (NSC835775), CPI-455 (NSC825282), aza-TdCyd (NSC777586), decitabine (NSC127716), belinostat (NSC758774), entinostat (NSC756642), pevonedistat (NSC761192), tazemetostat (NSC777109), talazoparib (NSC765396), olaparib (NSC753686), selinexor (NSC780203), nedisertib (M3814, NSC802822), bortezomib (NSC756655), venetoclax (NSC766270), doxorubicin (NSC123127), elimusertib (BAY189344, NSC800525), ceralasertib (AZD6738, NSC777638), TAK-243 (NSC785004), alisertib (NSC759677), etoposide (NSC141540), topotecan (NSC609699), eribulin (NSC707389), gemcitabine (NSC613327), carboplatin (NSC241240), cisplatin (NSC119875), and SN-38 (NSC673596) were obtained from the National Cancer Institute (NCI) Developmental Therapeutics Program Chemical Repository (32). The FDA-approved anticancer drug set is available from the Developmental Therapeutics Program at https://dtp.cancer.gov/organization/dscb/obtaining/available plates.htm. […] The stock solutions were prepared in dimethyl sulfoxide (DMSO, Sigma-Aldrich, St. Louis, MO, cat. D2650), except for the platinum compounds which were prepared in saline (Quality Biological, Gaithersburg, MD, cat. 114-055-101), at 800-fold the tested concentration and stored at -70 degrees C prior to their use. All drugs and investigational agents were tested over a range starting from a high concentration at or near the clinical Cmax and decreasing in half-log increments. If the clinical Cmax for an agent had not been determined, the highest concentration tested was 10 microM (Table 1).
Cell Culture. All cells were maintained in an incubator at 37 degrees C and 5% CO2 with 95% humidity. The PDC lines were cultured according to standard operating procedures established by the NCI PDMR (https://pdmr.cancer.gov). Briefly, all PDCs were thawed and cultured in Matrigel-coated flasks prepared with a working solution of 1X Ham's F-12 nutrient mix, without supplementation (Invitrogen, Waltham, MA, cat. 11765054), 100 U/mL penicillin-streptomycin (Invitrogen, cat. 15140122), and 2.5% Matrigel (Corning Inc., Corning, NY, cat. 354248) for the first three passages. All PDCs were cultured in complete DMEM/F-12 media containing advanced DMEM/F-12 (Invitrogen, cat. 12634028), 4.9% defined fetal bovine serum, heat inactivated (HyClone Laboratories Inc., Logan, UT, cat. SH30070.03HI), 389 ng/mL hydrocortisone (Sigma-Aldrich, cat. H4001), 9.7 ng/mL human EGF recombinant protein (Invitrogen, cat. PHG0313), 23.4 microg/mL adenine (Sigma-Aldrich, cat. A2786), 97.3 U/mL penicillin-streptomycin (Invitrogen, cat. 15140122), 1.9 mM L-glutamine (Invitrogen, cat. 25030081), and 9.7 microM Y-27632 dihydrochloride (Tocris Bioscience, Bristol, United Kingdom, cat. 1254). The PDCs were cultured in complete DMEM/F12 media without 10 microM Y-27632 dihydrochloride for at least two passages prior to the screen. The established cell lines NCI-H1341 and […] were cultured in DMEM/F-12, HEPES (Invitrogen, cat. 11330032), 5% defined fetal bovine serum (HyClone Laboratories Inc., cat. SH30070.03), ITS premix universal culture supplement [insulin (5 microg/mL), transferrin (5 microg/mL), and selenious acid (5 ng/mL)] […]

[1] = curve of first compound, second compound 0.1 µM
[2] = curve of first compound, second compound 0.316 µM
[3] = curve of first compound, second compound 1 µM
[4] = curve of first compound, second compound 3.16 µM
[5] = curve of first compound, second compound 10 µM
[6] = second compound 0.1 µM, first compound 0.0316 µM
[7] = second compound 0.1 µM, first compound 0.1 µM
[8] = second compound 0.1 µM, first compound 0.316 µM
[9] = second compound 0.1 µM, first compound 1 µM
[10] = second compound 0.1 µM, first compound 3.16 µM
[11] = second compound 0.1 µM, first compound 10 µM
[12] = second compound 0.316 µM, first compound 0.0316 µM
[13] = second compound 0.316 µM, first compound 0.1 µM
[14] = second compound 0.316 µM, first compound 0.316 µM
[15] = second compound 0.316 µM, first compound 1 µM
[16] = second compound 0.316 µM, first compound 3.16 µM
[17] = second compound 0.316 µM, first compound 10 µM
[18] = second compound 1 µM, first compound 0.0316 µM
[19] = second compound 1 µM, first compound 0.1 µM
[20] = second compound 1 µM, first compound 0.316 µM
[21] = second compound 1 µM, first compound 1 µM
[22] = second compound 1 µM, first compound 3.16 µM
[23] = second compound 1 µM, first compound 10 µM
[24] = second compound 3.16 µM, first compound 0.0316 µM
[25] = second compound 3.16 µM, first compound 0.1 µM
[26] = second compound 3.16 µM, first compound 0.316 µM
[27] = second compound 3.16 µM, first compound 1 µM
[28] = second compound 3.16 µM, first compound 3.16 µM
[29] = second compound 3.16 µM, first compound 10 µM
[30] = second compound 10 µM, first compound 0.0316 µM
[31] = second compound 10 µM, first compound 0.1 µM
[32] = second compound 10 µM, first compound 0.316 µM
[33] = second compound 10 µM, first compound 1 µM
[34] = second compound 10 µM, first compound 3.16 µM
[35] = second compound 10 µM, first compound 10 µM
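Also: spheroids exposed to compounds for seven days.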

Row | SMILES | IC50 [1] | IC50 [2] | IC50 [3] | IC50 [4] | IC50 [5] | viability, T/C [6] | viability, T/C [7] | viability, T/C [8] | viability, T/C [9] | viability, T/C [10] | viability, T/C [11] | viability, T/C [12] | viability, T/C [13] | viability, T/C [14] | viability, T/C [15] | viability, T/C [16] | viability, T/C [17] | viability, T/C [18] | viability, T/C [19] | viability, T/C [20] | other results
1 | CC(C)c1c(-c2ccccc2)nc2c(C#N)c[nH]n2c1=O + Cc1ccccc1N=Nc1ccc(NC(=O)c2ccnn2C)c(C)c1 | > 10 µM | > 10 µM | > 10 µM | > 10 µM | < 0.0316 µM | 105% | 106% | 108% | 110% | 111% | 104% | 106% | 104% | 111% | 104% | 102% | 99.4% | 96.2% | 94.4% | 98.4% | viability, T/C [21]: 98.6%; viability, T/C [22]: 90%; viability, T/C [23]: 96.4%; viability, T/C [24]: 80.9%; viability, T/C [25]: 79.2%; viability, T/C [26]: 82.7%; viability, T/C [27]: 88%; viability, T/C [28]: 81.8%; viability, T/C [29]: 67.3%; viability, T/C [30]: 45.5%; viability, T/C [31]: 50.8%; viability, T/C [32]: 55.2%; viability, T/C [33]: 45.4%; viability, T/C [34]: 47.4%; viability, T/C [35]: 42%
2 | CC(C)CC(NC(=O)C(Cc1ccccc1)NC(=O)c1cnccn1)B(O)O (configuration not stated) | – | – | – | – | – | – | – | – | – | – | – | – | – | – | – | – | – | – | – | – | viability, T/C (compound 0.000949 µM): 106% and 93.4% and 96.8%; viability, T/C (compound 0.003 µM): 94.4% and 94.7% and 83.5%; viability, T/C (compound 0.00949 µM): 19.2% and 26.2% and 9.11%; viability, T/C (compound 0.03 µM): 1.45% and 1.42% and 0.86%; viability, T/C (compound 0.0949 µM): 0.43% and 0.3% and 0.26%; viability, T/C (compound 0.3 µM): 0.27% and 0.21% and 0.15%; IC50 (curve of compound): 0.00592 µM and 0.00634 µM and 0.00504 µM
3 | NS(=O)(=O)OCC1CC(n2ccc3c(NC4CCc5ccccc54)ncnc32)CC1O (configuration not stated) + CC(CO)NC(=O)c1cc(-c2ccc(Cl)cc2)nn(-c2cnn(C)c2)c1=O | 0.097 µM | 0.0989 µM | 0.101 µM | 0.0891 µM | 0.0587 µM | 111% | 48.4% | 15% | 7.66% | 6.85% | 5.35% | 97.6% | 49.5% | 15.9% | 7.66% | 5.71% | 6.67% | 106% | 50.3% | 17.3% | viability, T/C [21]: 7.69%; viability, T/C [22]: 7.18%; viability, T/C [23]: 7.68%; viability, T/C [24]: 84.1%; viability, T/C [25]: 46.1%; viability, T/C [26]: 16.7%; viability, T/C [27]: 7.54%; viability, T/C [28]: 7.16%; viability, T/C [29]: 7.08%; viability, T/C [30]: 65.6%; viability, T/C [31]: 36.1%; viability, T/C [32]: 19.3%; viability, T/C [33]: 8.18%; viability, T/C [34]: 6.74%; viability, T/C [35]: 6.33%
4 | COc1cccc2c1C(=O)c1c(O)c3c(c(O)c1C2=O)CC(O)(C(=O)CO)CC3OC1CC(N)C(O)C(C)O1 (configuration not stated) + CC(CO)NC(=O)c1cc(-c2ccc(Cl)cc2)nn(-c2cnn(C)c2)c1=O | < 0.0316 µM | < 0.0316 µM | < 0.0316 µM | < 0.0316 µM | < 0.0316 µM | 26.3% | 15.5% | 6.77% | 0.48% | 0.93% | 0.78% | 21.1% | 14.9% | 7.09% | 0.26% | 1.12% | 0.78% | 24.6% | 14.6% | 6.76% | viability, T/C [21]: 0.2%; viability, T/C [22]: 1.11%; viability, T/C [23]: 1.04%; viability, T/C [24]: 21.3%; viability, T/C [25]: 21.2%; viability, T/C [26]: 3.93%; viability, T/C [27]: 0.22%; viability, T/C [28]: 0.98%; viability, T/C [29]: 0.67%; viability, T/C [30]: 15.4%; viability, T/C [31]: 19.3%; viability, T/C [32]: 3.22%; viability, T/C [33]: 0.46%; viability, T/C [34]: 0.54%; viability, T/C [35]: 0.83%
